Experimental data as given in US6730705B1, “Alkoximino acetic acid amides” (Bayer Aktiengesellschaft, priority 1995, dated 2004).

Tests used:
[1] = log p (physical constant, Table 7)
[2] = log p (physical constant of Table 7); conditions: single isomer (E or Z as listed in Table 7)
[3] = E/Z isomer mixture, first of two printed values (x/y)
[4] = E/Z isomer mixture, second of two printed values (x/y)

CCON=C(C(=O)NCCc1ccc(OC)c(OC)c1)c1ccc(Cl)cc1 (mixture of isomers) [Compound 77]
log p [1, 3]: 3.07
log p [1, 4]: 3.34

CCON=C(C(=O)NCCc1ccc(OC)c(OC)c1)c1ccc(Br)cc1 [Compound 146]
log p ([1]; physical constant of Table 7): log p: 3.15

CO/N=C(/C(=O)NCCc1ccc(OC)c(OC)c1)c1ccc(Br)cc1 [Compound 96]
log p ([1]; physical constant of Table 7): log p: 2.82

CCc1ccc(C(=NOC)C(=O)NCCc2ccc(OC)c(OC)c2)s1 [Compound 127]
log p ([1]; physical constant of Table 7): log p: 3.22

CON=C(C(=O)NCCc1ccc(OC)c(OC)c1)c1ccc(C)cc1 (mixture of isomers) [Compound 41]
log p [1, 3]: 2.53
log p [1, 4]: 2.77

CCc1ccc(/C(=N\OC)C(=O)NCCc2ccc(OC)c(OC)c2)cc1 [Compound 81]
log p ([1]; physical constant of Table 7): log p: 2.86

CO/N=C(/C(=O)NCCc1ccc(OC)c(OC)c1)c1ccc(C2CCCCC2)cc1 [Compound 171]
log p [2]: log p: 4.03

CON=C(C(=O)NCCc1ccc(OC)c(OC)c1)c1ccc(OCc2ccccc2)cc1 [Compound 126]
log p ([1]; physical constant of Table 7): log p: 3.49

CCc1ccc(C(=NOC)C(=O)NCCc2ccc(OC)c(OC)c2)s1 [Compound 143]
log p ([1]; physical constant of Table 7): log p: 2.77

CCOc1ccc(/C(=N\OC)C(=O)NCCc2ccc(OC)c(OC)c2)cc1 [Compound 82]
log p ([1]; physical constant of Table 7): log p: 2.59

CON=C(C(=O)NCCc1ccc(OC)c(OC)c1)c1ccc(C)s1 [Compound 73]
log p ([1]; physical constant of Table 7): log p: 2.46

CON=C(C(=O)NCCc1ccc(OC)c(OC)c1)c1ccc2c(c1)CCC2 [Compound 114]
log p ([1]; physical constant of Table 7): log p: 3.01

CO/N=C(\C(=O)NCCc1ccc(OC)c(OC)c1)c1ccc(C)c(C)c1 [Compound 91]
log p ([1]; physical constant of Table 7): log p: 3.00

CCCCc1ccc(C(=NOC)C(=O)NCCc2ccc(OC)c(OC)c2)cc1 [Compound 132]
log p ([1]; physical constant of Table 7): log p: 3.62

CCON=C(C(=O)NCCc1ccc(OC)c(OC)c1)c1ccc2c(c1)CCC2 [Compound 170]
log p [2]: log p: 3.25

CO/N=C(/C(=O)NCCc1ccc(OC)c(OC)c1)c1ccc(Cl)cc1 [Compound 24]
log p ([1]; physical constant of Table 7): log p: 2.99

CCCc1ccc(C(=NOC)C(=O)NCCc2ccc(OC)c(OC)c2)cc1 [Compound 124]
log p ([1]; physical constant of Table 7): log p: 3.25

CCON=C(C(=O)NCCc1ccc(OC)c(OC)c1)c1ccc2c(c1)CCCC2 [Compound 173]
log p [2]: log p: 3.53

CO/N=C(/C(=O)NCCc1ccc(OC)c(OC)c1)c1ccc(C)c(C)c1 [Compound 99]
log p ([1]; physical constant of Table 7): log p: 2.75

CO/N=C(/C(=O)NCCc1ccc(OC)c(OC)c1)c1ccc(F)cc1 [Compound 98]
log p ([1]; physical constant of Table 7): log p: 2.39

CON=C(C(=O)NCCc1ccc(OC)c(OC)c1)c1ccc2c(c1)CCCC2 [Compound 117]
log p ([1]; physical constant of Table 7): log p: 3.44

CCO/N=C(/C(=O)NCCc1ccc(OC)c(OC)c1)c1ccc(C)cc1 [Compound 110]
log p ([1]; physical constant of Table 7): log p: 2.85
